Assays:
Type in all cases: in vivo
[1] = tested on: Chilo suppressalis (Striped Rice Stemborer); assay: Example B3: Chilo suppressalis, artificial diet; conditions: 144 h, application rate of 200 ppm, L2 larvae, 6 days after infestation, read-out: control in at least one of the three categories (mortality, anti-feedant effect, or growth inhibition)
Experimental: Example B3: Chilo suppressalis (Striped Rice Stemborer)
24-well microtiter plates with artificial diet were treated with aqueous test solutions prepared from 10,000 ppm DMSO stock solutions by pipetting. After drying, the plates were infested with L2 larvae (6-8 per well). The samples were assessed for mortality, anti-feeding effect, and growth inhibition in comparison to untreated samples 6 days after infestation. Control of Chilo suppressalis by a test sample is given when at least one of the categories mortality, anti-feedant effect, and growth inhibition is higher than the untreated sample.

[2] = tested on: Plutella xylostella (Diamondback Moth); assay: Example B9: Plutella xylostella, artificial diet, 96-well; conditions: 216 h, application rate of 500 ppm, eggs/L1 larvae, 9 days after infestation
Experimental: Example B9: Plutella xylostella (Diamondback Moth)
96-well microtiter plates containing artificial diet were treated with aqueous test solutions, prepared from 10,000 ppm DMSO stock solutions, by a liquid handling robot. After drying, eggs (˜30 per well) were infested onto a netted lid which was suspended above the diet. The eggs hatch and L1 larvae move down to the diet. The samples were assessed for mortality 9 days after infestation.
The following compounds gave an effect of at least 80% mortality at an application rate of 500 ppm: […]

[3] = tested on: Spodoptera littoralis (Egyptian Cotton Leaf Worm); assay: Example B6: Spodoptera littoralis, spray on cotton leaf discs; conditions: foliar, 72 h, application rate of 200 ppm, L1 larvae, 3 days after infestation, read-out: control in at least one of the three categories (mortality, anti-feedant effect, or growth inhibition)
Experimental: Example B6: Spodoptera littoralis (Egyptian Cotton Leaf Worm)
Cotton leaf discs were placed onto agar in 24-well microtiter plates and sprayed with aqueous test solutions prepared from 10,000 ppm DMSO stock solutions. After drying the leaf discs were infested with five L1 larvae. The samples were assessed for mortality, anti-feeding effect, and growth inhibition in comparison to untreated samples 3 days after infestation. Control of Spodoptera littoralis by a test sample is given when at least one of the categories mortality, anti-feedant effect, and growth inhibition is higher than the untreated sample.

[4] = tested on: Plutella xylostella (Diamond Back Moth); assay: Example B4: Plutella xylostella, artificial diet, 24-well; conditions: 192 h, application rate of 200 ppm, eggs, 8 days after infestation, read-out: control in at least one of the two categories (mortality or growth inhibition)
Experimental: Example B4: Plutella xylostella (Diamond Back Moth)
24-well microtiter plates with artificial diet were treated with aqueous test solutions prepared from 10,000 ppm DMSO stock solutions by pipetting. After drying, Plutella eggs were pipetted through a plastic stencil onto a gel blotting paper and the plate was closed with it. The samples were assessed for mortality and growth inhibition in comparison to untreated samples 8 days after infestation.
(§1) The following compounds gave an effect of at least 80% control in at least one of the two categories (mortality or growth inhibition) at an application rate of 200 ppm: […]

[5] = tested on: Diabrotica balteata (Corn Root Worm); assay: Example B1: Diabrotica balteata, spray on maize sprouts; conditions: 96 h, application rate of 200 ppm, L2 larvae, 4 days after infestation, read-out: control in at least one of the two categories (mortality or growth inhibition)
Experimental: Example B1: Diabrotica balteata (Corn Root Worm)
Maize sprouts placed onto an agar layer in 24-well microtiter plates were treated with aqueous test solutions prepared from 10,000 ppm DMSO stock solutions by spraying. After drying, the plates were infested with L2 larvae (6 to 10 per well). The samples were assessed for mortality and growth inhibition in comparison to untreated samples 4 days after infestation.
as §1

[6] = tested on: Euschistus heros (Neotropical Brown Stink Bug); assay: Example B2: Euschistus heros, spray on soybean leaves; conditions: 120 h, application rate of 200 ppm, N2 nymphs, 5 days after infestation, read-out: control in at least one of the two categories (mortality or growth inhibition)
Experimental: Example B2: Euschistus heros (Neotropical Brown Stink Bug)
Soybean leaves on agar in 24-well microtiter plates were sprayed with aqueous test solutions prepared from 10,000 ppm DMSO stock solutions. After drying the leaves were infested with N2 nymphs. The samples were assessed for mortality and growth inhibition in comparison to untreated samples 5 days after infestation.
as §1

[7] = tested on: Myzus persicae (Green Peach Aphid); assay: Example B10: Myzus persicae, sucrose solution, 96-well; conditions: 120 h, application rate of 50 ppm, 5 days after infestation
Description: Example B10: Myzus persicae (Green Peach Aphid)
Test compounds prepared from 10,000 ppm DMSO stock solutions were applied by a liquid handling robot into 96-well microtiter plates and mixed with a sucrose solution. Parafilm was stretched over the 96-well microtiter plate and a plastic stencil with 96 holes was placed onto the plate. Aphids were sieved into the wells directly onto the Parafilm. The infested plates were closed with a gel blotting card and a second plastic stencil and then turned upside down. The samples were assessed for mortality 5 days after infestation.

CC(NC(=O)c1cc(C2CC2C(F)(F)F)cc(C(F)(F)F)c1)c1nccnc1-n1nccn1 (stereo not drawn) [Compound P9, N-[1-[3-(triazol-2-yl)pyrazin-2-yl]ethyl]-3-(trifluoromethyl)-5-[2-(trifluoromethyl)cyclopropyl]benzamide]
≥ 80%: percent control (mortality, anti-feedant effect or growth inhibition) at 200 ppm [1] | mortality at 500 ppm [2] | percent control (mortality, anti-feedant effect or growth inhibition) at 200 ppm [3] | percent control (mortality or growth inhibition) at 200 ppm [4] | percent control (mortality or growth inhibition) at 200 ppm [5]

CC(NC(=O)c1cc(C2CC2)nc(C(F)(F)F)c1)c1nccnc1-n1nccn1 (stereo not drawn) [Compound P11, 2-cyclopropyl-N-[1-[3-(triazol-2-yl)pyrazin-2-yl]ethyl]-6-(trifluoromethyl)pyridine-4-carboxamide]
≥ 80%: percent control (mortality, anti-feedant effect or growth inhibition) at 200 ppm [1] | mortality at 500 ppm [2] | percent control (mortality, anti-feedant effect or growth inhibition) at 200 ppm [3] | percent control (mortality or growth inhibition) at 200 ppm [4] | percent control (mortality or growth inhibition) at 200 ppm [5]

CC(NC(=O)c1cc(C(F)(F)F)cc(S(=O)(=O)C(F)(F)F)c1)c1nccnc1-n1nccn1 (stereo not drawn) [Compound P13, N-[1-[3-(triazol-2-yl)pyrazin-2-yl]ethyl]-3-(trifluoromethyl)-5-(trifluoromethylsulfonyl)benzamide]
≥ 80%: percent control (mortality, anti-feedant effect or growth inhibition) at 200 ppm [1] | mortality at 500 ppm [2] | percent control (mortality, anti-feedant effect or growth inhibition) at 200 ppm [3] | percent control (mortality or growth inhibition) at 200 ppm [4] | percent control (mortality or growth inhibition) at 200 ppm [5]

CC(NC(=O)c1cc(C(F)(F)F)nc(C2(C#N)CC2)c1)c1nccnc1-n1nccn1 (stereo not drawn) [Compound P14, 2-(1-cyanocyclopropyl)-N-[1-[3-(triazol-2-yl)pyrazin-2-yl]ethyl]-6-(trifluoromethyl)pyridine-4-carboxamide]
≥ 80%: percent control (mortality, anti-feedant effect or growth inhibition) at 200 ppm [1] | percent control (mortality, anti-feedant effect or growth inhibition) at 200 ppm [3] | percent control (mortality or growth inhibition) at 200 ppm [4] | percent control (mortality or growth inhibition) at 200 ppm [6] | percent control (mortality or growth inhibition) at 200 ppm [5]

CC(NC(=O)c1cc(C2CC2)cc(C(F)(F)F)c1)c1nccnc1-n1nccn1 (stereo not drawn) [Compound P15, 3-cyclopropyl-N-[1-[3-(triazol-2-yl)pyrazin-2-yl]ethyl]-5-(trifluoromethyl)benzamide]
≥ 80%: percent control (mortality, anti-feedant effect or growth inhibition) at 200 ppm [1] | mortality at 500 ppm [2] | percent control (mortality, anti-feedant effect or growth inhibition) at 200 ppm [3] | percent control (mortality or growth inhibition) at 200 ppm [4] | percent control (mortality or growth inhibition) at 200 ppm [5]

CC(NC(=O)c1cc(C(F)(F)F)cc(C(F)(F)C2CC2)c1)c1nccnc1-n1nccn1 (stereo not drawn) [Compound P17, 3-[cyclopropyl(difluoro)methyl]-N-[1-[3-(triazol-2-yl)pyrazin-2-yl]ethyl]-5-(trifluoromethyl)benzamide]
≥ 80%: percent control (mortality, anti-feedant effect or growth inhibition) at 200 ppm [1] | mortality at 500 ppm [2] | percent control (mortality, anti-feedant effect or growth inhibition) at 200 ppm [3] | percent control (mortality or growth inhibition) at 200 ppm [4] | percent control (mortality or growth inhibition) at 200 ppm [5]

CC(NC(=O)c1cc(Cl)nc(C(F)(F)F)c1)c1nccnc1-n1nccn1 (stereo not drawn) [Compound P22, 2-chloro-N-[1-[3-(triazol-2-yl)pyrazin-2-yl]ethyl]-6-(trifluoromethyl)pyridine-4-carboxamide]
≥ 80%: percent control (mortality, anti-feedant effect or growth inhibition) at 200 ppm [1] | mortality at 50 ppm [7] | mortality at 500 ppm [2] | percent control (mortality, anti-feedant effect or growth inhibition) at 200 ppm [3] | percent control (mortality or growth inhibition) at 200 ppm [4] | percent control (mortality or growth inhibition) at 200 ppm [5]

CC(NC(=O)c1cc(F)cc(C(F)(F)F)c1)c1nccnc1-n1nccn1 (stereo not drawn) [Compound P26, 3-fluoro-N-[1-[3-(triazol-2-yl)pyrazin-2-yl]ethyl]-5-(trifluoromethyl)benzamide]
≥ 80%: percent control (mortality, anti-feedant effect or growth inhibition) at 200 ppm [1] | mortality at 50 ppm [7] | mortality at 500 ppm [2] | percent control (mortality, anti-feedant effect or growth inhibition) at 200 ppm [3] | percent control (mortality or growth inhibition) at 200 ppm [4] | percent control (mortality or growth inhibition) at 200 ppm [5]

CC(NC(=O)c1cc(Cl)cc(OC(F)(F)F)c1)c1nccnc1-n1nccn1 (stereo not drawn) [Compound P33, 3-chloro-N-[1-[3-(triazol-2-yl)pyrazin-2-yl]ethyl]-5-(trifluoromethoxy)benzamide]
≥ 80%: percent control (mortality, anti-feedant effect or growth inhibition) at 200 ppm [1] | mortality at 500 ppm [2] | percent control (mortality, anti-feedant effect or growth inhibition) at 200 ppm [3] | percent control (mortality or growth inhibition) at 200 ppm [4] | percent control (mortality or growth inhibition) at 200 ppm [5]

CC(NC(=O)c1cc(Br)cc(OC(F)(F)F)c1)c1nccnc1-n1nccn1 (stereo not drawn) [Compound P36, 3-bromo-N-[1-[3-(triazol-2-yl)pyrazin-2-yl]ethyl]-5-(trifluoromethoxy)benzamide]
≥ 80%: percent control (mortality, anti-feedant effect or growth inhibition) at 200 ppm [1] | mortality at 500 ppm [2] | percent control (mortality, anti-feedant effect or growth inhibition) at 200 ppm [3] | percent control (mortality or growth inhibition) at 200 ppm [4] | percent control (mortality or growth inhibition) at 200 ppm [5]

CC(NC(=O)c1cc(Br)cc(Br)c1)c1nccnc1-n1nccn1 (stereo not drawn) [Compound P38, 3,5-dibromo-N-[1-[3-(triazol-2-yl)pyrazin-2-yl]ethyl]benzamide]
≥ 80%: percent control (mortality, anti-feedant effect or growth inhibition) at 200 ppm [1] | mortality at 500 ppm [2] | percent control (mortality, anti-feedant effect or growth inhibition) at 200 ppm [3] | percent control (mortality or growth inhibition) at 200 ppm [4] | percent control (mortality or growth inhibition) at 200 ppm [5]

CC(NC(=O)c1cc(C(F)(F)F)cc(C(F)(F)F)c1)c1nccnc1-n1cncn1 (stereo not drawn) [Compound P46, N-[1-[3-(1,2,4-triazol-1-yl)pyrazin-2-yl]ethyl]-3,5-bis(trifluoromethyl)benzamide]
≥ 80%: percent control (mortality, anti-feedant effect or growth inhibition) at 200 ppm [1] | percent control (mortality, anti-feedant effect or growth inhibition) at 200 ppm [3] | percent control (mortality or growth inhibition) at 200 ppm [4] | percent control (mortality or growth inhibition) at 200 ppm [6]

CC(NC(=O)c1cc(C(F)(F)F)cc(C(F)(F)F)c1)c1nccnc1-n1nc2ccccc2n1 (stereo not drawn) [Compound P52, N-[1-[3-(benzotriazol-2-yl)pyrazin-2-yl]ethyl]-3,5-bis(trifluoromethyl)benzamide]
≥ 80%: percent control (mortality, anti-feedant effect or growth inhibition) at 200 ppm [1] | mortality at 500 ppm [2] | percent control (mortality, anti-feedant effect or growth inhibition) at 200 ppm [3] | percent control (mortality or growth inhibition) at 200 ppm [4] | percent control (mortality or growth inhibition) at 200 ppm [5]
